For orientation: logP means the decadic logarithm of the partition coefficient of the neutral form, usually between octanol and water. Read a low logP as a more hydrophilic compound. Take `O=C(O)Cc1ccccc1O`: the logP is 1.47.
The value for `O=C(O)Cc1ccc(O)c(O)c1` was 0.98; that for `O=C(O)c1ccc(O)c(O)c1` was 0.99; that for `O=C(O)Cc1ccc(O)cc1` was 1.26.
The compound `O=C(O)Cc1cc(O)ccc1O` returned a logP of 0.86.
Turning to `O=C(O)c1cc(O)cc(O)c1`, the logP is 0.94.
As for `O=C(O)c1cc2ccccc2cc1O`, the logP worked out at 3.05.
Compound `COc1cccc(C(O)C(=O)O)c1` (centres undefined) showed a logP of 1.33.
Next, `CCC(=O)c1ccccc1`: 2.3; `COc1cc(CC(=O)O)ccc1O`: 1.18.
The value for `O=C(O)C1CCCCC1` was 1.96.
Next, `O=C(O)CCn1ccc2ccccc21`: 2.2; `CC(C)CCOC(=O)c1ccccc1`: 4.1.
For the compound `O=C(O)c1cc(O)c(O)c(O)c1`, the logP came to 0.72.
Consider `COc1cccc(/C=C/C(=O)O)c1`, for which the logP stood at 2.37.
Next, `O=C(O)Cn1ccc2ccccc21`: 1.92; `COc1cc(C(O)C(=O)O)ccc1O` (centres undefined): 0.84; `CCCCOC(=O)c1ccccc1`: 3.68.
The value for `O=C(O)Cn1ccc2cc(O)ccc21` was 1.17.

Source of the values: the SangsterLogP compilation.
